According to article PMC3510438, “The transmembrane tyrosines Y56, Y91 and Y167 play important roles in determining the affinity and transport rate of the rabbit proton-coupled peptide transporter PepT1” (The International Journal of Biochemistry & Cell Biology, 2009):
Positions count from the first letter of the chain named. Where a SMILES comes first, the peptide text is derived from it.

How the values were obtained:
Y91R-rPepT1 = biological target: T1, Y91R-rPepT1 (Oryctolagus cuniculus, UniProt P36836, Y91R); assay: Competition of [3H]-D-Phe-L-Gln uptake into Xenopus oocytes, Ki; assay type: cell-based, rabbit; settings: pHout 7.4; against 0.4 μM [3H]-D-Phe-L-Gln uptake
T1 construct: expressed in transfected cells; host or cells: Xenopus laevis oocytes injected with cRNA
T1 sequence (P36836 1-707 Y91R): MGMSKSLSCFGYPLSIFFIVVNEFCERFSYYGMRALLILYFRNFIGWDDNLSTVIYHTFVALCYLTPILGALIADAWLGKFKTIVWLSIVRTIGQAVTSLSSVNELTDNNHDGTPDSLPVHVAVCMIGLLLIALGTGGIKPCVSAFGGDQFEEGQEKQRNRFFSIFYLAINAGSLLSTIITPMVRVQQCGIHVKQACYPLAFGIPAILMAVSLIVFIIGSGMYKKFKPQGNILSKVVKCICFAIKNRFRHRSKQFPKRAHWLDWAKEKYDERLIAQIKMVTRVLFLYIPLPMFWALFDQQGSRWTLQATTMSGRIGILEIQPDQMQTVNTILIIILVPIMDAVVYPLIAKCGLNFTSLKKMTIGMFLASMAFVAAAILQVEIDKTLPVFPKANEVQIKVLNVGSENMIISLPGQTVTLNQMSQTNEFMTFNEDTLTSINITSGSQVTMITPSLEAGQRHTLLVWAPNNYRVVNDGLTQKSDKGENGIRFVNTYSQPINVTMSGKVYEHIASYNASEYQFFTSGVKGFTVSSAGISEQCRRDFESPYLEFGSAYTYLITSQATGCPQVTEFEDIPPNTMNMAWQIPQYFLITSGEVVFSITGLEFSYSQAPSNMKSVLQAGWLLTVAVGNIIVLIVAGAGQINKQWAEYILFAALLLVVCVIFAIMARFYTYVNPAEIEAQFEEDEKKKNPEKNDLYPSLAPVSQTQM
Procedure: (§1) rPepT1 constructs were linearised with XbaI (New England Biolabs, UK) and cRNA generated by in vitro transcription (T7 mMessage mMachine, Ambion, Cambridgeshire, UK). Xenopus laevis oocytes were obtained under MS222 anaesthesia (0.2%, w/v) in accordance with the UK Animals (Scientific Procedures) Act, 1986, and maintained at 18 °C in modified Barth's medium (88 mM NaCl, 1 mM KCl, 0.82 mM MgSO4, 2.4 mM NaHCO3, 0.42 mM CaCl2, 10 mM Hepes, 5 mM sodium pyruvate, 50 μg ml^−1 gentamicin (Fluka, Poole, UK), adjusted to pH 7.6 with 1 M NaOH). Transport measurements were performed at least 72 h after micro-injection of oocytes with 27nl cRNA (1 μg/μl), with medium changed daily.
(§2) Uptake of [^3H]-D-Phe-L-Gln (17.4 Ci/mmole, custom synthesised, Cambridge Research Biochemicals, Stockton-on-Tees, UK) was performed as previously described ([Meredith, 2004]). Briefly, 5 oocytes were incubated in 100 μl of uptake medium (95 mM NaCl, 2 mM KCl, 1 mM CaCl2, 0.42 mM MgCl2, 10 mM Tris/Hepes pH 7.4 or Tris/Mes pH 5.5) with tracer (0.4 μM) [^3H]-D-Phe-L-Gln. After incubation, the oocytes were washed sequentially five times in 1 ml of ice-cold 120 mM NaCl solution, lysed individually with 100 μl 2% (w/v) SDS and liquid scintillation counted. As a control non-injected oocytes were also incubated in uptake medium with D-Phe-L-Gln as above.
(§3) The affinity of wild-type and mutant rPepT1 transporters were assessed by competition studies with 0.4 μM [^3H]-D-Phe-L-Gln and Gly-L-Gln present in the uptake medium in concentrations from 0 to 2 mM using the protocol above, and the Ki calculated using the method of [Deves and Boyd (1989)].

Y12F-rPepT1 = biological target: T2, Y12F-rPepT1 (Oryctolagus cuniculus, UniProt P36836, Y12F); assay: as above; assay type: cell-based, rabbit; settings: against 0.4 μM [3H]-D-Phe-L-Gln uptake
T2 construct: expressed in transfected cells; host or cells: Xenopus laevis oocytes injected with cRNA
T2 sequence (P36836 1-707 Y12F): T1 sequence (P36836 1-707 Y91R) with Y12F, R91Y
Procedure: as §1, §2, §3

Ki (Y91R-rPepT1): 3 ± 1 µM
Ki (Y12F-rPepT1; pHout 5.5): 220 ± 20 µM
Ki (Y12F-rPepT1; pHout 7.4): 90 ± 20 µM
Compound: NCC(=O)N[C@@H](CCC(N)=O)C(=O)O [Gly-L-Gln] (H-Gly-Gln-OH)
